Experimental findings from ChEMBL document CHEMBL5257129, “Design, synthesis, and anticancer evaluation of arylurea derivatives as potent and selective type II irreversible covalent FGFR4 inhibitors” (Bioorg Med Chem, 2023) are described below.

The test system of data set [1] is Huh-7. Put plainly: Antiproliferative activity against human Huh-7 cells assessed as inhibition of cell growth at 10 uM measured after 72 hrs by CCK8 assay. It counts as functional. In general terms: Tetrazolium dyes change colour on reduction, which living cells bring about.
For data set [2], the system named is Hep 3B2. The experiment in a line: Antiproliferative activity against human Hep3B cells assessed as inhibition of cell growth at 10 uM measured after 72 hrs by CCK8 assay. The data set is classed as functional.
The subject of data set [3] is Huh-7. The experiment in a line: Antiproliferative activity against human Huh-7 cells assessed as inhibition of cell growth measured after 72 hrs by CCK8 assay. The data set is classed as functional, cell-based. To be noted: Huh-7, 72 h.
Data set [4] relates to Hep 3B2. The experiment in a line: Antiproliferative activity against human Hep3B cells assessed as inhibition of cell growth measured after 72 hrs by CCK8 assay. The data set is classed as functional, cell-based.
Data set [5] in a line: Half life in Sprague-Dawley rat at 5 mg/kg, iv measured upto 24 hrs by LC/MS/MS analysis. The data set is classed as ADME, organism-based. To be noted: in vivo.
Data set [6] is described as follows: Tmax in Sprague-Dawley rat at 5 mg/kg, iv measured upto 24 hrs by LC/MS/MS analysis. The data set is classed as ADME, organism-based. To be noted: in vivo.
A short description of data set [7]: Initial plasma concentration in Sprague-Dawley rat at 5 mg/kg, iv measured upto 24 hrs by LC/MS/MS analysis. It counts as ADME, organism-based.
Data set [8] in a line: Cmax in Sprague-Dawley rat at 5 mg/kg, iv measured upto 24 hrs by LC/MS/MS analysis. The data set is classed as ADME, organism-based. Also on record: time < 24 hrs, dose 5 mg/kg, route iv. To be noted: in vivo.
Data set [9] in a line: AUC(0 to t) in Sprague-Dawley rat at 5 mg/kg, iv measured upto 24 hrs by LC/MS/MS analysis. It counts as ADME, organism-based. On the set-up: time < 24 hrs, dose 5 mg/kg, route iv. To be noted: in vivo.
A short description of data set [10]: AUC(0 to infinity) in Sprague-Dawley rat at 5 mg/kg, iv measured upto 24 hrs by LC/MS/MS analysis. It counts as ADME, organism-based. Also on record: dose 5 mg/kg, time < 24 hrs, route iv. To be noted: in vivo.
Data set [11] is described as follows: Apparent volume of distribution in Sprague-Dawley rat at 5 mg/kg, iv measured upto 24 hrs by LC/MS/MS analysis. The data set is classed as ADME, organism-based. Conditions: in vivo, read-out: Vz.
Data set [12] is described as follows: Clearance in Sprague-Dawley rat at 5 mg/kg, iv measured upto 24 hrs by LC/MS/MS analysis. It counts as ADME, organism-based. To be noted: in vivo.
A short description of data set [13]: Mean residence time (0 to t) in Sprague-Dawley rat at 5 mg/kg, iv measured upto 24 hrs by LC/MS/MS analysis. It counts as ADME, organism-based. Conditions: in vivo.
Data set [14] in a line: Half life in Sprague-Dawley rat at 20 mg/kg, po measured upto 24 hrs by LC/MS/MS analysis. The data set is classed as ADME, organism-based. To be noted: in vivo.
Data set [15] in a line: Tmax in Sprague-Dawley rat at 20 mg/kg, po measured upto 24 hrs by LC/MS/MS analysis. To be noted: in vivo. It counts as ADME, organism-based.
Data set [16] is described as follows: Cmax in Sprague-Dawley rat at 20 mg/kg, po measured upto 24 hrs by LC/MS/MS analysis. Conditions: in vivo. It counts as ADME, organism-based. Also on record: dose 20 mg/kg, time < 24 hrs, route po.
A short description of data set [17]: AUC(0 to t) in Sprague-Dawley rat at 20 mg/kg, po measured upto 24 hrs by LC/MS/MS analysis. It counts as ADME, organism-based. On the set-up: dose 20 mg/kg, time < 24 hrs, route po. To be noted: in vivo.
Data set [18] is described as follows: AUC(0 to infinity) in Sprague-Dawley rat at 20 mg/kg, po measured upto 24 hrs by LC/MS/MS analysis. It counts as ADME, organism-based. Also on record: dose 20 mg/kg, time < 24 hrs, route po. To be noted: in vivo.
Data set [19] can be described thus: Mean residence time (0 to t) in Sprague-Dawley rat at 20 mg/kg, po measured upto 24 hrs by LC/MS/MS analysis. It counts as ADME, organism-based. Conditions: in vivo.

Broadly, the inhibition is the drop in the measured response relative to a control, in per cent. In the case of `C=CC(=O)Nc1ccc(-c2ccc(NC(=O)Nc3ccc(CN4CCN(CC)CC4)c(C(F)(F)F)c3)c(C)c2)cn1`, the inhibition at 10 µM in data set [1] was 80.3%; in data set [2], 85.4%.
For `C=CC(=O)Nc1ccc(-c2cnc(NC(=O)Nc3ccc(CN4CCN(C)CC4)c(C(F)(F)F)c3)cn2)cn1`, in that order: 84.5% and 86.1%.
A word on the IC50: it is the concentration at which inhibition is half-maximal. For the molecule `C/C=C/C(=O)Nc1ccc(Oc2ccc(NC(=O)Nc3ccc(CN4CCN(C)CC4)c(C(F)(F)F)c3)c(C)c2)cn1`, the inhibition at 10 µM was 86.7% in data set [1] and 87% in [2]. The IC50 in data set [3] was 1020 nM; in data set [4] it was 1120 nM.
In the case of `C=CC(=O)Nc1ccc(-c2ccc(NC(=O)Nc3ccc(CN4CCN(C)CC4)c(C(F)(F)F)c3)c(Cl)c2)cn1`, the inhibition at 10 µM came out at 91.4% in [1] and 99.1% in [2]. The IC50 in data set [3] amounted to 1620 nM; in data set [4], 1270 nM.
The like results for `Cc1ccc(C(=O)Nc2ccc(CN3CCN(C)CC3)c(C(F)(F)F)c2)cc1C#Cc1cnc2cccnn12` [PONATINIB] were, in that order, 90.5%, 95.5%, 990 nM and 720 nM.
`C=CC(=O)Nc1ccc(-c2ccc(NC(=O)Nc3ccc(CN4CCN(C)CC4)c(C(F)(F)F)c3)cc2C)cn1`: the inhibition at 10 µM in data set [1] was 96.9%; in data set [2], 95.3%.
With `C=C(F)C(=O)Nc1ccc(-c2ccc(NC(=O)Nc3ccc(CN4CCN(C)CC4)c(C(F)(F)F)c3)c(C)c2)cn1`, the inhibition at 10 µM in data set [1] came out at 93%; in data set [2] it was 91.2%. Moreover, the IC50 was determined as 3380 nM in [3] and 3240 nM in data set [4].
Turning to `C=CC(=O)Nc1ccc(-c2ccc(NC(=O)Nc3ccc(CN4CCN(C)CC4)c(C(F)(F)F)c3)c(C)c2)cn1`, the results for the inhibition at 10 µM in [1] and in [2] were 94.8% and 94.6%, respectively. Besides, the IC50 in data set [3] amounted to 3350 nM; in data set [4] it was 3180 nM.
Take `CC#CC(=O)Nc1ccc(Oc2ccc(NC(=O)Nc3ccc(CN4CCN(C)CC4)c(C(F)(F)F)c3)c(C)c2)cn1`: the inhibition at 10 µM in [1] came out at 93.2%; in [2], 92.3%.
As to `C=CC(=O)Nc1ccc(-c2ccc(NC(=O)Nc3ccc(CN4CCN(C)CC4)c(C(F)(F)F)c3)cc2F)cn1`, the inhibition at 10 µM in data set [1] was determined as 96.7%; in [2], 95.7%.
As to `Cc1cc(-c2ccc(NC(=O)CCl)nc2)ccc1NC(=O)Nc1ccc(CN2CCN(C)CC2)c(C(F)(F)F)c1`, the inhibition at 10 µM was found to be 80.9% in [1] and 87.6% in [2]. The half-maximal inhibitory concentration (IC50) in [3] was found to be 21500 nM; in data set [4] it was 22100 nM.
With `C=CC(=O)Nc1ccc(-c2ccc(NC(=O)Nc3ccc(CN4CCN(C)CC4)c(C(F)(F)F)c3)cc2)cn1`, the figures for the inhibition at 10 µM in [1] and in data set [2] were 94.8% and 95.8%, respectively.
Turning to `C=CC(=O)Nc1ccc(-c2ccc(NC(=O)Nc3ccc(CN4CCN(C)CC4)c(C(F)(F)F)c3)nc2)cn1`, the values for the inhibition at 10 µM in data set [1] and in data set [2] were 59% and 67%, respectively.
For the molecule `C=CC(=O)Nc1ccc(Oc2ccc(NC(=O)Nc3ccc(CN4CCN(C)CC4)c(C(F)(F)F)c3)c(C)c2)cn1`, the values for the inhibition at 10 µM in data set [1] and in [2] were 87.2% and 84.7%, respectively.
What is called half-life is the time needed for the level to fall by half in the phase considered. As usually defined, the Tmax is the time at which the peak concentration occurs. The term Cmax denotes the maximum level reached in the sampled fluid or tissue. As a reminder, the AUC(0-t) is exposure summed from dosing to a finite time, without extrapolation to infinity. A lower AUC(0-t) goes with less exposure. By AUC(0-inf) is commonly meant total exposure, with the tail of the curve extrapolated. Read a high AUC(0-inf) as high exposure. The term clearance denotes the volume of plasma or blood freed of the substance per unit of time. A higher clearance goes with a high capacity for elimination. A word on the MRT last: it is a mean duration of stay, worked out from the concentration-time curve. Regarding `C=CC(=O)Nc1ccc(Oc2ccc(NC(=O)Nc3ccc(CN4CCN(C)CC4)c(C(F)(F)F)c3)cc2)cn1`, the inhibition at 10 µM in [1] was determined as 97.7%; in data set [2], 91%. For the same molecule, the IC50 amounted to 250 nM in data set [3] and 220 nM in data set [4]. In addition, the half-life in data set [5] is 4.75 h; in data set [14] it was 3.12 h. The time of peak concentration (Tmax) in data set [6] was determined as 4.98 min; in data set [15] it was 2.67 h. The C0 at 24 h in data set [7] is 4930 ng/mL. The Cmax in [8] was found to be 4190 ng/mL; in data set [16], 23.7 ng/mL. Moreover, the AUC(0-t) at 24 h in data set [9] was 4240 ng·h/mL; in [17], 140 ng·h/mL. The values for the area under the curve AUC(0-inf) in [10] and in data set [18] were 4260 ng·h/mL and 149 ng·h/mL, respectively. The Vd in [11] stood at 8.1 L/kg. In data set [12], this molecule had a clearance of 19.6 mL/min/kg. For the same molecule, the MRT last at 24 h in data set [13] came to 1.25 h; in data set [19] it was 3.99 h.
